{
  "source": "patent US20230390297A1",
  "about": "“USE OF NUCLEOTIDE SYNTHESIS INHIBITORS FOR TARGETED THERAPY IN MLL3/4 COMPASS MUTANT CANCER” (priority 2022, published 2023)",
  "key": {"[1]": {"tested_on": "MLL4 mutant colorectal cancer cells (SW480, DLD1, HCT116, RKO)", "test": "CellTiter-Glo viability assay in MLL4 wild type and MLL4 mutant colorectal cell lines", "assay_type": "cell-based, human", "conditions": "72 hours; LTX 0-30 μM, Piericidin A 0-10 μM, Phenformin 0-30 mM"}, "[2]": {"tested_on": "RKO, HCT116, DLD1, Caco2, HT55 and SW1417 cells", "test": "Western blot of cell cycle and apoptosis markers in colorectal cancer cells", "assay_type": "cell-based, human", "conditions": "1 μM LTX, 24 hours; MLL4 mutant vs WT cells", "experimental": "FIG. 5. MLL4 mutant colorectal cancer cells are selectively sensitive to lometrexol treatment. (A) 100 μL of 0.5×10^5 cells/mL cells were seeded in 96-well plates one day before treatment. Cells were treated with 0-30 μM lometrexol (LTX) with 3× fold dilution for 72 hours. CellTiter-Glo® luminescent cell viability assay was performed to determine the percentage of inhibition under these conditions. The line plot compares sensitivity difference of all cell lines tested. (B) RKO, HCT116, DLD1, Caco2, HT55 and SW1417 cells were treated with DMSO or 1 μM LTX for 24 hours and whole cell lysates were used for western blot against cell cycle (H3 Ser10-p, CDT1, CyclinB 1, Geminin, CyclinEl, CyclinA2, p-cdc2) and apoptosis (PARP, Caspase3) markers using Hsp90 and I3-tubulin as loading control. […] (F) A subset of representative terms from the full cluster were selected and converted into a network layout. Each term is represented by a circle node, where its size is proportional to the number of input genes fall under that term, and its color represent its cluster identity. Terms with a similarity score>0.3 are linked by an edge (the thickness of the edge represents the similarity score). The network is visualized with Cytoscape with “force-directed” layout and with edge bundled for clarity. One term from each cluster is selected to have its term description shown as label. […]"}},
  "data": [
    {"compound": "Nc1nc2c(c(=O)[nH]1)C[C@@H](CCc1ccc(C(=O)N[C@@H](CCC(=O)O)C(=O)O)cc1)CN2", "note": "[lometrexol, (2S)-2-[[4-[2-[(6R)-2-amino-4-oxo-5,6,7,8-tetrahydro-3H-pyrido[2,3-d]pyrimidin-6-yl]ethyl]benzoyl]amino]pentanedioic acid]", "values": [
      {"measurement": "sensitivity of MLL4 mutant cells compared with MLL4 wild type cells (growth inhibition)", "setting": "[1]", "result": "selectively more sensitive"},
      {"measurement": "cell cycle markers H3 Ser10-p, CDT1, CyclinB1 (western blot)", "setting": "[2]", "result": "significant downregulation of histone H3 Serine10 phosphorylation (H3 Ser10-p), CDT1 and CyclinB1 was observed only in MLL4 mutant cells but not WT cells"}
    ]}
  ]
}
